Measurements as given in patent publication US7572434B2, “Method for assessing the effect of a drug on long term memory formation” (Cold Spring Harbor Laboratory, priority 1994, dated 2009).

Key:
wild-type (Can-S) flies = assay: Pavlovian olfactory learning: memory retention after massed or spaced training in flies fed cycloheximide; format: in vivo, Drosophila; conditions: for one-day memory after massed training: vs control flies; for one-day memory retention after spaced training: vs glucose-fed flies
Method: For experiments on one day retention after massed or spaced training, flies were fed 35 mM CXM and (w/v) 5% glucose dissolved in 3% ethanol. Groups of 100 flies were placed in feeding tubes (Falcon 2017) containing one 1.0×2.5 cm Whatmann 3MM filter paper strips that was soaked with a total of 126 μl of solution.
The feeding period was limited to 12-14 hrs prior to training, or to the 24-hr retention interval after training. Flies which were fed prior to training were transferred directly to the training apparatus after feeding, subjected to massed or spaced training, then transferred to test tubes containing filter paper strips soaked with 5% glucose during the 24-hr interval. Flies which were fed after training were trained, then transferred immediately to test tubes containing filter paper strips soaked with 5% glucose solution which was laced with 35 mM CXM. Flies remained in the test tubes for the duration of the 24-hr retention interval.
Flies were trained with an automated version of the learning procedure of Tully, T. and W. G. Quinn, J. Comp. Physiol., 157: 263-277 (1985). In brief, flies were trapped in a training chamber, the inside of which was covered with an electrifiable copper grid. Groups of about 100 flies were exposed sequentially to two odors [either octanol (OCT) or methylcyclohexanol (MCH)], which were carried through the training chamber in a current of air, for 60 seconds with 45 seconds rest intervals after each odor presenation. During exposure to the first odor, flies also were subjected to twelve 1.5-second pulses of 60 V DC with a 5-second interpulse interval. After training, flies were transferred to food vials for a particular retention interval. Conditioned odor-avoidance responses then were tested by transferring flies to the choice point of a T-maze, where they were exposed simultaneously to OCT and MCH carried in the distal ends of the T-maze arms and out the choice point on converging currents of air. Flies were allowed to distribute themselves in the T-maze arms for two minutes, after which they were trapped in their respective arms, anesthetized and counted. The “percent correct” then was calculated as the number of flies avoiding the shock-paired odor (they were in the opposite T-maze arm) divided by the total number of flies in both arms. (The number of flies left at the choice point, which usually was less than 5%, were not included in this calculation). Finally, a performance index (PI) was calculated by averaging the percent corrects of two reciprocal groups of flies—one where OCT and shock were paired, the other where MCH and shock were paired—and then by normalizing the average so that a PI=0 represented a 50:50 distribution in the T-maze and a PI=100 represented 100% avoidance of the shock-paired odor. For these studies, three different training protocols were used: 1. One-cycle training consisted of the training session just described. 2. Massed training consisted of 10 of these training cycles delivered one right after the other. 3. Spaced training consisted of 10 training cycles with a 15-min rest interval between each. One-cycle training was used to assay learning, while massed and spaced was used to assay consolidated memories.
A. One-day memory in wild-type flies fed CXM before or immediately after massed or spaced training (FIG. 8): PIs from these four drug treatments (−CXM before, −CXM after, +CXM before and +CXM after) and two training procedures (massed and spaced) were subjected to a TWO-WAY ANOVA with DRUG (F(3,56)=8.93; P<0.001) and TRAINing (F(1,56)=18.10, P<0.001) as main effects and DRUG×TRAIN (F(3,56)=4.68, P=0.006) as the interaction term. The six planned comparisons were judged significant if P≦0.01.
Different groups of wild-type (Can-S) flies were fed 5% glucose solution alone (hatched bars) or laced with 35 mM CXM (striped bars) either for 12-14 hr overnight before massed or spaced training or for the 24-hr retention interval immediately after training. […]

[1] = target: T1, DNOS (Drosophila nitric oxide synthase) (Drosophila melanogaster, UniProt Q27571, DUP33-33/S105L/S1197R/S20A/S287C); assay: DNOS enzyme activity, conversion of 3H-L-arginine to 3H-L-citrulline in extracts of dNOS-transfected 293 cells; format: biochemical
T1 construct: contained dNOS cDNA (with an XbaI site engineered immediately upstream of the ATG codon) cloned into the XbaI and SmaI sites; made in house; host or cells: 293 human embryonic kidney cells, transient calcium-phosphate transfection; unpurified soluble protein extract
T1 sequence (Q27571 other isoform, or with tags, fused parts or gaps S20A/DUP33-33/S105L/S287C/S1197R): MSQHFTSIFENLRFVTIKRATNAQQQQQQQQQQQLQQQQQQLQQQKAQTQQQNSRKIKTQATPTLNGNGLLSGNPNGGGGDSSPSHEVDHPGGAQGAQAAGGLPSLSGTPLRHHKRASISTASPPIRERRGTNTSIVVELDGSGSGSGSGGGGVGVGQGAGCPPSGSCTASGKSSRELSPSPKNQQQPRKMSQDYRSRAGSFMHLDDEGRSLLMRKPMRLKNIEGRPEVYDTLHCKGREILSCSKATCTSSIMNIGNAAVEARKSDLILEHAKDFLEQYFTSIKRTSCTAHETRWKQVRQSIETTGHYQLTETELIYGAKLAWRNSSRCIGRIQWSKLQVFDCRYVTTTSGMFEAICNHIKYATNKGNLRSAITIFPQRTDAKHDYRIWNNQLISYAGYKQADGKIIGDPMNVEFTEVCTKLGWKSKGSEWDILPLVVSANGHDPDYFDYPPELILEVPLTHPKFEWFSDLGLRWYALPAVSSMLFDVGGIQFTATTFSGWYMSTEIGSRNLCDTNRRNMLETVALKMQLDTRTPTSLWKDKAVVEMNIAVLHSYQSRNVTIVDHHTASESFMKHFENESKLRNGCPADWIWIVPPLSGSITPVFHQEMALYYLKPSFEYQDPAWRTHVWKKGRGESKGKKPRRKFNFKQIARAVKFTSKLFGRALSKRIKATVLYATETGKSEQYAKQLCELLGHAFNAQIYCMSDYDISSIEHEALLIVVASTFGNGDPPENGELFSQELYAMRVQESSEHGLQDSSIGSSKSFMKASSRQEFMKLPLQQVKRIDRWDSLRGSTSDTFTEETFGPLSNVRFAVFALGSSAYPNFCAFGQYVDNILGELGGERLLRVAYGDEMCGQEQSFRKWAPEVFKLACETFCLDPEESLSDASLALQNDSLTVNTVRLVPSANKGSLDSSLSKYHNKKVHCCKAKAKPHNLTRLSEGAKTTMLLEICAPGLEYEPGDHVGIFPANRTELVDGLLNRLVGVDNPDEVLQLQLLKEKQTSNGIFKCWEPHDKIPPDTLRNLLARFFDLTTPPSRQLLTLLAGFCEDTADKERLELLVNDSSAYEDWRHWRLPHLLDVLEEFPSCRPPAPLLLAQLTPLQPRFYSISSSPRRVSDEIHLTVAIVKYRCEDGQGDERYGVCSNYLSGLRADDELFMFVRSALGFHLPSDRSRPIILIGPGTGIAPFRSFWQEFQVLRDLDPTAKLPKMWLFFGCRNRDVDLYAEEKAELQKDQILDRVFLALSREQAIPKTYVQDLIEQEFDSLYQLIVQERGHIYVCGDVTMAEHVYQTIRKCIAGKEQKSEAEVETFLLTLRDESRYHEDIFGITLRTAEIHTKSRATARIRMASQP
Excerpt: [In a parallel experiment, the specific activity of rat neuronal NOS expressed from the same vector in 293 cells was 3.0±0.02 pmol/mg/min, N=4]. DNOS activity was dependent on exogenous Ca^2+/calmodulin and on NADPH, two cofactors necessary for activity of constitutive mammalian NOSs (Iyengar, R., Proc. Natl. Acad. Sci. USA, 84: 6369-6373 (1987); Bredt, D. S., Proc. Natl. Acad. Sci. USA, 87: 682-685 (1990)). DNOS activity was reduced 90% by the Ca^2+ chelator EGTA (FIG. 17B, group C). Also, 500 μM N-(6-aminohexyl)-1-naphthalene-sulfonamide (W5), a calmodulin antagonist which inhibits activity of neuronal NOS (Bredt, D. S., Proc. Natl. Acad. Sci. USA, 87: 682-685 (1990)), diminished DNOS activity to 18% (0.0222±0.001 pmol/mg/min, N=2). In the absence of exogenous NADPH, DNOS (or nNOS) activity was reduced 20% (0.1061±0.011 pmol/mg/min, N=4 for DNOS; 2.7935±0.033 pmol/mg/min, N=2 for NNOS). DNOS activity also was blocked by inhibitors of mammalian NOSs (Rees, D. D., Br. J. Pharmacol., 101: 746-752 (1990)).
The expression construct for activity assays contained dNOS cDNA (with an XbaI site engineered immediately upstream of the ATG codon) cloned into the XbaI and SmaI sites of the pCGN expression vector (M. Tanaka and W. Herr, Cell, 60: 375 (1990)). 293 human kidney cells were transfected with 15 μg of the dNOS construct, or vector DNA, and precipitated with calcium phosphate as described in (M. J. Imperiale, L. T. Feldman and J. R. Nevins, Cell, 35: 127 (1983)). Cells were collected 2 days later and protein extracts were prepared as described in (J. Sambrook, E. F. Fritsch, T. Maniatis, Molecular Cloning: A Laboratory Manual (Cold Spring Harbor Laboratory, Cold Spring Harbor, N.Y., 1989)).
The enzymatic assay was done essentially as described previously (D. Bredt and S. Snyder, Proc. Natl. Acad. Sci. USA, 87: 682 (1990)). A […] containing 25 μl (50-100 μg) of soluble protein extract, 50 mM Hepes pH 7.4, […], 3 μM FMN, 10 μM tetrahydrobiopterin (ICN), 1 mM DTT, 0.8 mM CaCl2, 1 mM NADPH, 10 μg/ml calmodulin, 2 μl of [^3H]L-arginine (35.7 Ci/mmol, NEN) and 50 mM L-valine in was incubated for 60 minutes at 37° C. The reaction was stopped with 0.5 ml 20 mM Hepes pH 5.5, 2 mM EDTA, 2 mM EGTA, loaded on 0.5 ml Dowex AG 50WX-8 (Na^+ form) column and eluted with 3×0.5 ml of the stop buffer. Radioactivity present in the eluent was quantified in a scintillation counter.
Enzymatic activity was detected only in cells transfected with dNOS cDNA construct (groups B-D) and is presented as specific activity (pmol of citrulline/mg/min.). The DNOS activity also was measured in the presence of 1 mM EGTA without exogenous Ca^2+ or calmodulin (group C), or in the presence of […] (group D). N=4 reactions per group.

[2] = system: PKA-responsive transcription (CRE-directed reporter) in F9 cells; assay: PKA-responsive transcription from the CRE-containing D(-71) CAT reporter in transiently transfected F9 cells; format: cell-based; conditions: cotransfection of dCREB2-a and PKA; CAT/βgal ratios standardized to PKA-transfected dishes
Method: Undifferentiated F9 cells were maintained and transfected using the calcium phosphate method as described in Darrow, A. L. et al., “Maintenance and Use of F9 Teratocarcinoma Cells”, In Meth. Enzymol., v. 190 (1990), except that chloroquine was added to […] immediately before transfection and precipitates were washed off ten hours after transfection, at which time the dishes received fresh chloroquine-free medium. Amounts of DNA in transfections were made equivalent by adding RSV-0 where required. Cells were harvested 30 hours after transfection. Extracts were made by three cycles of freeze/thawing, with brief vortexing between cycles. Particulate matter was cleared from extracts by ten minutes of centrifugation in the cold. β-galactosidase assays were performed as described in Miller, J. H., Experiments in Molecular Genetics, Cold Spring Harbor Laboratory, Cold Spring Harbor, N.Y., 1972. CAT assays were performed as described in Sheen, J. Y. and B. Seed, Gene, 67: 271-277 (1988) using aliquots of extract heat-treated at 65° C. for ten minutes and centrifuged for ten minutes to remove debris. Results reported are from three experiments run on different days with at least three dishes per condition within each experiment. Error bars represent standard error of the mean, with error propagation taken into account (Grossman, M. and H. W. Norton, J. Hered., 71: 295-297 (1980)).
F9 cells were transiently transfected with 10 μg of D(−71) CAT plasmid as a CRE-directed reporter. 5 μg of RSV-βgal reporter was included in each dish as a normalization control for transfection efficiency. Different groups received 8 μg of dCREB2-a expression vector and 4 μg of PKA expression vector, separately or in combination. Results are expressed as CAT/Pgal enzyme activity ratios, standardized to values obtained with PKA-transfected dishes. […]
Two different dCREB2 isoforms, dCREB2-a and dCREB2-b, have opposite roles in PKA-responsive transcription. […] CREB-dependent changes in gene expression were measured using a cotransfected construct that has a CRE-containing promoter fused to a reporter gene.

[3] = 35 mM CXM fed 12-14 hr before training
[4] = 35 mM CXM fed for the 24-hr retention interval after training
[5] = flies fed CXM immediately before or after training

`C[C@@H]1C[C@@H]([C@H](O)CC2CC(=O)NC(=O)C2)C(=O)[C@@H](C)C1` [CXM, cycloheximide] was tested, and the “one-day memory after massed training” value (wild-type (Can-S) flies; [3]) was “no difference was detected”, the “one-day memory retention after spaced training” value (wild-type (Can-S) flies; [3]) was “significantly lower than normal” and the “one-day memory after massed training” value (wild-type (Can-S) flies; [4]) was “no difference was detected”. For the same molecule, the “one-day memory retention after spaced training” value (wild-type (Can-S) flies; [4]) was “significantly lower than normal”, the “anesthesia-resistant memory (ARM)” value (wild-type (Can-S) flies; [5]) was “not affected” and the “long-term memory (LTM)” value (wild-type (Can-S) flies; [5]) was “completely blocked”.

`O=C(O)CN(CCOCCOCCN(CC(=O)O)CC(=O)O)CC(=O)O` [EGTA] gave a DNOS activity reduced ([1]; 1 mM EGTA without exogenous Ca2+ or calmodulin (FIG. 17B, group C)) of 90%.

`COC(=O)[C@@H](N)CCCNC(=N)N[N+](=O)[O-]` [L-NAME, N^G-nitro-L-arginine methyl ester] was tested, and the DNOS activity reduced ([1]; 100 mM L-NAME with exogenous Ca2+/calmodulin (FIG. 17B, group D)) was 84%.

`CC(=O)O.CNC(=N)NCCC[C@H](N)C(=O)O` [N^G-monomethyl-L-arginine acetate] was tested, and the “block of DNOS activity” value ([1]; 100 μM N^G-monomethyl-L-arginine acetate) was “complete block” and the DNOS specific activity ([1]; 100 μM N^G-monomethyl-L-arginine acetate, N=2) was 0.0001 ± 0.0002 pmol/mg/min.

For `NCCCCCCNS(=O)(=O)c1cccc2ccccc12` [W5, N-(6-aminohexyl)-1-naphthalene-sulfonamide], the DNOS specific activity ([1]; 500 μM W5, N=2) was 0.0222 ± 0.001 pmol/mg/min and the remaining activity at 500 µM ([1]; 500 μM W5, read-out: DNOS activity diminished to (remaining activity)) was 18%.

B1: dCREB2-a: Drosophila dCREB2 isoform, PKA-responsive transcriptional activator (SEQ ID NO.: 2), expressed from RSV-dCREB2-a (protein, listed as Drosophila sp.)
chain: MDNSIVEENGNSSAASGSNDVVDVVAQQAAAAVGGGGGGGGGGGGGGNPQQQQQNPQSTTAGGPTGATNNAQGGGVSSVLTTTANCNIQYPIQTLAQHGLQVSIWGPGAWCQLSSVRCYGSQPEVATKDVQSVIQANPSGVIQTAAGTQQQQQALAAATAMQKVVYVAKPPNSTVIHTTPGNAVQVRNKIPPTFPCKIKPEPNTQHPEDSDESLSDDDSQHHRSELTRRPSYNKIFTEISGPDMSGASLPMSDGVLNSQLVGTGAGGNAANSSLMQLDPTYYLSNRMSYNTNNSGIAEDQTRKREIRLQKNREAARECRRKKKEYIKCLENRVAVLENQNKALIEELKSLKELYCQTKND
With B1 the “activation of CRE reporter relative to PKA alone” value [2] was 5.4 fold.
